{"source": "patent US20230040182A1", "about": "“ARYL HETEROBICYCLIC COMPOUNDS AS Kv1.3 POTASSIUM SHAKER CHANNEL BLOCKERS” (priority 2019, published 2023)"}
{"target": "T1, Kv1.3 potassium channel (Homo sapiens, UniProt P22001)", "T1 construct": "expressed in transfected cells", "T1 sequence (P22001 whole entry)": "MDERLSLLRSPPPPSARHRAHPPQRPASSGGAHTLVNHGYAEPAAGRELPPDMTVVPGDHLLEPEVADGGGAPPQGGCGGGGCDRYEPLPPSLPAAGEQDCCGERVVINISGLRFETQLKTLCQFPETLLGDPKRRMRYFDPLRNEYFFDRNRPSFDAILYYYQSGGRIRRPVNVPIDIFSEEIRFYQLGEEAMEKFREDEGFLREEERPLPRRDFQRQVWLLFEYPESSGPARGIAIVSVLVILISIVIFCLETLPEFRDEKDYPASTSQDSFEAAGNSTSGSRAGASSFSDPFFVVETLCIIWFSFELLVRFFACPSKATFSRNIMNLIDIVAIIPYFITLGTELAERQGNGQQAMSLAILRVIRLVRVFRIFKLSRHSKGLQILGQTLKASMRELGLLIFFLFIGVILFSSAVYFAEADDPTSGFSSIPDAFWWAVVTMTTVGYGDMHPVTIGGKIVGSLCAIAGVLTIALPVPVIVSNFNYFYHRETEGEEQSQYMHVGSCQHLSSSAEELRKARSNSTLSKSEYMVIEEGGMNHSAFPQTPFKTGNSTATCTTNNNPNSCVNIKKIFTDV", "test": "Kv1.3 potassium channel blocker activity, automated whole-cell patch clamp (Patchliner)", "type": "cell-based", "settings": "CHO-K1 cells stably expressing Kv1.3; whole-cell current, Hill fit", "procedure": "Example 9. Evaluation of Kv1.3 Potassium Channel Blocker Activities\nThis assay is used to evaluate the disclosed compounds' activities as Kv1.3 potassium channel blockers.\nCHO-K1 cells stably expressing Kv1.3 were grown in DMEM containing 10% heat-inactivated FBS, 1 mM Sodium Pyruvate, 2 mM L-Glutamine and G418 (500 μg/ml). Cells were grown in culture flasks at 37° C. in a […] incubator.\nThe cells were bathed in an extracellular solution containing 140 mM NaCl, 4 mM KCl, 2 mM CaCl2, 1 mM MgCl2, 5 mM Glucose, 10 mM HEPES; pH adjusted to 7.4 with NaOH; 295-305 mOsm. The internal solution contained 50 mM KCl, 10 mM NaCl, 60 mM KF, 20 mM EGTA, 10 mM HEPES; pH adjusted to 7.2 with KOH; 285 mOsm. All compounds were dissolved in DMSO at 30 mM. Compound stock solutions were freshly diluted with external solution to concentrations of 30 nM, 100 nM, 300 nM, 1 μM, 3 μM, 10 μM, 30 μM and 100 μM. The highest content of DMSO (0.3%) was present in 100 μM.\nThe currents were evoked by applying 100 ms depolarizing pulses from −90 mV (holding potential) to +40 mV were applied with 0.1 Hz frequency. Control (compound-free) and compound pulse trains for each compound concentration applied contained 20 pulses. 10-second breaks were used between pulse trains (see Table A below).\nWhole-cell current recordings and compound application were enabled by means of an automated patch clamp platform Patchliner (Nanion Technologies GmbH). EPC 10 patch clamp amplifier (HEKA Elektronik Dr. Schulze GmbH) along with Patchmaster software (HEKA Elektronik Dr. Schulze GmbH) was used for data acquisition. Data were sampled at 10 kHz without filtering. Passive leak currents were subtracted online using a P/4 procedure (HEKA Elektronik Dr. Schulze GmbH). Increasing compound concentrations were applied consecutively to the same cell without washouts in between. Total compound incubation time before the next pulse train was not longer than 10 seconds. Peak current inhibition was observed during compound equilibration.\nAUC and peak values were obtained with Patchmaster (HEKA Elektronik Dr. Schulze GmbH). To determine IC50, the last single pulse in the pulse train corresponding to a given compound concentration was used. Obtained AUC and peak values in the presence of compound were normalized to control values in the absence of compound. Using Origin (OridinLab), IC50 was derived from data fit to Hill equation: Icompound/Icontrol=(100−A)/(1+([compound]/IC50)nH)+A, where IC50 value is the concentration at which current inhibition is half-maximal, [compound] is the applied compound concentration, A is the fraction of current that is not blocked and nH is the Hill coefficient.", "units": {"IC50": "µM"}}
{"smiles": "Cc1ccc(O)c([C@@H]2CCN3C(=O)[C@@H](CO)NC(=O)[C@@H]3C2)c1Cl", "note": "(relative stereo) [Compound 28, (8R,9aS)-rel-8-(2-chloro-6-hydroxy-3-methylphenyl)-3-((3R)-hydroxymethyl)-hexahydro-2H-pyrido[1,2-a]pyrazine-1,4-dione]", "IC50": "< 1"}
{"smiles": "NC[C@H]1NC(=O)[C@@H]2C[C@H](c3c(O)ccc(Cl)c3Cl)CCN2C1=O", "note": "(relative stereo) [Compound 38, (8R,9aS)-rel-3-((3R)-aminomethyl)-8-(2,3-dichloro-6-hydroxyphenyl)-hexahydro-2H-pyrido[1,2-a]pyrazine-1,4-dione; trifluoroacetic acid]", "IC50": "< 1"}
{"smiles": "Cc1c(Cl)ccc(O)c1[C@@H]1CCN2C(=O)[C@@H](CO)NC(=O)[C@@H]2C1", "note": "(relative stereo) [Compound 49, (8R,9aS)-rel-8-(3-chloro-6-hydroxy-2-methylphenyl)-3-((3R)-hydroxymethyl)-hexahydro-2H-pyrido[1,2-a]pyrazine-1,4-dione]", "IC50": "< 10"}
{"smiles": "O=C1NC(=O)N2CC[C@@H](c3c(O)ccc(Cl)c3Cl)C[C@@H]12", "note": "(single isomer, unassigned; diastereoisomer 2) [Compound 19, 7-(2,3-dichloro-6-hydroxyphenyl)tetrahydro-imidazo[1,5-a]pyridine-1,3(2H,5H)-dione diastereoisomer 2]", "IC50": "< 1"}
{"smiles": "O=C1[C@H]2C[C@H](O)CN2C(=O)[C@H]2C[C@@H](c3c(O)ccc(Cl)c3Cl)CCN12", "note": "(single isomer, unassigned; isomer 1) [Compound 23, 7-(2,3-dichloro-6-hydroxyphenyl)-2-hydroxyhexahydro-1H-pyrido[1,2-a]pyrrolo[1,2-d]pyrazine-5,11(5aH,11aH)-dione isomer 1]", "IC50": "< 10"}
{"smiles": "O=C1[C@@H]2C[C@H](c3c(O)ccc(Cl)c3Cl)CCN2C(=O)[C@@H]2[C@H](O)CCN12", "note": "(single isomer, unassigned; isomer 1) [Compound 29, 7-(2,3-dichloro-6-hydroxyphenyl)-1-hydroxyhexahydro-1H-pyrido[1,2-a]pyrrolo[1,2-d]pyrazine-5,11(5aH,11aH)-dione isomer 1]", "IC50": "< 10"}
{"smiles": "O=C1[C@H]2[C@H](O)CCN2C(=O)[C@H]2C[C@@H](c3c(O)ccc(Cl)c3Cl)CCN12", "note": "(single isomer, unassigned; isomer 2) [Compound 17, 7-(2,3-dichloro-6-hydroxyphenyl)-1-hydroxyhexahydro-1H-pyrido[1,2-a]pyrrolo[1,2-d]pyrazine-5,11(5aH,11aH)-dione isomer 2]", "IC50": "< 1"}
{"smiles": "O=C1[C@H]2C[C@@H](c3c(O)ccc(Cl)c3Cl)CCN2C(=O)CN1C1CC(O)C1", "note": "(single isomer, unassigned; isomer 3) [Compound 34, 8-(2,3-dichloro-6-hydroxyphenyl)-2-[3-hydroxycyclobutyl]-hexahydropyrido[1,2-a]pyrazine-1,4-dione isomer 3]", "IC50": "< 10"}
{"smiles": "O=C1[C@@H]2C[C@H](O)CN2C(=O)[C@H]2C[C@@H](c3c(O)ccc(Cl)c3Cl)CCN12", "note": "(single isomer, unassigned; isomer 3) [Compound 45, 7-(2,3-dichloro-6-hydroxyphenyl)-2-hydroxyhexahydro-1H-pyrido[1,2-a]pyrrolo[1,2-d]pyrazine-5,11(5aH,11aH)-dione isomer 3]", "IC50": "< 10"}
{"smiles": "O=C1[C@H]2[C@H](O)CCN2C(=O)[C@@H]2C[C@H](c3c(O)ccc(Cl)c3Cl)CCN12", "note": "(single isomer, unassigned; isomer 3) [Compound 69, 7-(2,3-dichloro-6-hydroxyphenyl)-1-hydroxyhexahydro-1H-pyrido[1,2-a]pyrrolo[1,2-d]pyrazine-5,11(5aH,11aH)-dione isomer 3]", "IC50": "< 1"}
{"smiles": "O=C1[C@H]2C[C@@H](c3c(O)ccc(Cl)c3Cl)CCN2C(=O)CN1C1CC(O)C1", "note": "(single isomer, unassigned; isomer 4) [Compound 5, 8-(2,3-dichloro-6-hydroxyphenyl)-2-[3-hydroxycyclobutyl]-hexahydropyrido[1,2-a]pyrazine-1,4-dione isomer 4]", "IC50": "< 10"}
{"smiles": "C[C@@H]1NC(=O)C2CC(c3c(O)ccc(Cl)c3Cl)CCN2C1=O", "note": "(stereo partly drawn) [Compound 4, (3S)-8-(2,3-dichloro-6-hydroxyphenyl)-3-methyl-octahydro-1H-pyrido[1,2-a]pyrazine-1,4-dione]", "IC50": "< 10"}
{"smiles": "O=C1[C@H]2C[C@@H](c3cc(Cl)c(Cl)cc3O)CCN2C(=O)CN1C1CNC1", "note": "[Compound 10, (8S,9aR)-2-(azetidin-3-yl)-8-(4,5-dichloro-2-hydroxyphenyl)hexahydro-4H-pyrido[1,2-a]pyrazine-1,4(6H)-dione]", "IC50": "< 10"}
{"smiles": "CC[C@H]1NC(=O)[C@H]2C[C@@H](c3c(O)ccc(Cl)c3Cl)CCN2C1=O", "note": "[Compound 11, (8S,9aR)-8-(2,3-dichloro-6-hydroxyphenyl)-3-(3R)-ethyl-hexahydro-2H-pyrido[1,2-a]pyrazine-1,4-dione]", "IC50": "< 1"}
{"smiles": "CN1C(=O)[C@H]2C[C@@H](c3c(O)ccc(Cl)c3Cl)CCN2C(=O)[C@H]1CO", "note": "[Compound 13, (3R,8S,9aR)-8-(2,3-dichloro-6-hydroxyphenyl)-3-(hydroxymethyl)-2-methyl-hexahydropyrido[1,2-a]pyrazine-1,4-dione]", "IC50": "< 30"}
{"smiles": "O=C1NNC(=O)N2CC[C@H](c3c(O)ccc(Cl)c3Cl)C[C@H]12", "note": "[Compound 15, (8S,9aR)-8-(2,3-dichloro-6-hydroxyphenyl)hexahydro-4H-pyrido[1,2-d][1,2,4]triazine-1,4(6H)-dione]", "IC50": "< 10"}
{"smiles": "C[C@@H](O)[C@H]1NC(=O)[C@H]2C[C@@H](c3c(O)ccc(Cl)c3Cl)CCN2C1=O", "note": "[Compound 16, (3R,8S,9aR)-8-(2,3-dichloro-6-hydroxyphenyl)-3-[(1R)-1-hydroxyethyl]-hexahydro-2H-pyrido[1,2-a]pyrazine-1,4-dione]", "IC50": "< 10"}
{"smiles": "O=C1[C@H]2C[C@@H](c3c(O)ccc(Cl)c3Cl)CCN2C(=O)CN1C(CO)CO", "note": "[Compound 21, (8S,9aR)-8-(2,3-dichloro-6-hydroxyphenyl)-2-(1,3-dihydroxypropan-2-yl)hexahydro-4H-pyrido[1,2-a]pyrazine-1,4(6H)-dione]", "IC50": "< 10"}
{"smiles": "O=C1[C@H]2[C@@H](O)CCN2C(=O)[C@H]2C[C@@H](c3c(O)ccc(Cl)c3Cl)CCN12", "note": "[Compound 25, (1S,5aR,7S,11aR)-7-(2,3-dichloro-6-hydroxyphenyl)-1-hydroxyhexahydro-1H-pyrido[1,2-a]pyrrolo[1,2-d]pyrazine-5,11(5aH,11aH)-dione]", "IC50": "< 10"}
{"smiles": "NN1C(=O)[C@H]2C[C@@H](c3c(O)ccc(Cl)c3Cl)CCN2C1=O", "note": "[Compound 27, (7S,8aR)-2-amino-7-(2,3-dichloro-6-hydroxyphenyl)tetrahydro-imidazo[1,5-a]pyridine-1,3(2H,5H)-dione]", "IC50": "< 1"}
{"smiles": "O=C1N[C@H](CO)C(=O)N2CC(c3c(O)ccc(Cl)c3Cl)CC12", "note": "(stereo partly drawn) [Compound 31, (3R)-7-(2,3-dichloro-6-hydroxyphenyl)-3-(hydroxymethyl)hexahydro-pyrrolo[1,2-a]pyrazine-1,4-dione]", "IC50": "< 1"}
{"smiles": "O=C1NNC(=O)N2CC[C@@H](c3c(O)ccc(Cl)c3Cl)C[C@@H]12", "note": "[Compound 33, (8R,9aS)-8-(2,3-dichloro-6-hydroxyphenyl)hexahydro-4H-pyrido[1,2-d][1,2,4]triazine-1,4(6H)-dione]", "IC50": "< 1"}
{"smiles": "O=C1[C@H]2C[C@@H](c3c(O)ccc(Cl)c3Cl)CCN2C(=O)CN1CCO", "note": "[Compound 37, (8S,9aR)-8-(2,3-dichloro-6-hydroxyphenyl)-2-(2-hydroxyethyl)-hexahydropyrido[1,2-a]pyrazine-1,4-dione]", "IC50": "< 10"}
{"smiles": "CC(C)[C@@H](O)[C@@H]1NC(=O)[C@H]2C[C@@H](c3c(O)ccc(Cl)c3Cl)CCN2C1=O", "note": "[Compound 39, (3S,8S,9aR)-8-(2,3-dichloro-6-hydroxyphenyl)-3-[(1R)-1-hydroxy-2-methylpropyl]-hexahydro-2H-pyrido[1,2-a]pyrazine-1,4-dione]", "IC50": "< 10"}
{"smiles": "O=C1[C@@H]2C[C@H](c3c(O)ccc(Cl)c3Cl)CCN2C(=O)[C@H]2CC(O)CCN12", "note": "(stereo partly drawn) [Compound 40, (2R,6aR,12aS)-2-(2,3-dichloro-6-hydroxyphenyl)-8-hydroxyoctahydro-dipyrido[1,2-a:1′,2′-d]pyrazine-6,12(2H,6aH)-dione]", "IC50": "< 1"}
